Data taken from patent US20240165120A1, “TREATING CANCER IN PATIENT HAVING CO-OCCURRING GENETIC ALTERATION IN FGFR2 AND A CANCER DRIVER GENE” (TAIHO PHARMACEUTICAL CO., LTD., priority 2021, published 2024).

Columns and labels:
Crystal form stability = details: crystal forms defined by XRPD peaks
[1] = Crystal form oral absorbability; details: crystal forms defined by XRPD peaks
advanced iCCA = details: 1st line; patients with advanced iCCA; cited from earlier work

Compound	stability (Crystal form stability)	oral absorbability [1]	overall survival (advanced iCCA) [year]
C=CC(=O)N1CC[C@H](n2nc(C#Cc3cc(OC)cc(OC)c3)c3c(N)ncnc32)C1 [Compound (1), (S)-1-[(3)-[4-amino-3-[(3,5-dimethoxyphenyl)ethynyl]-1H-pyrazolo[3,4-d]pyrimidin-1-yl]-1-pyrrolidinyl]-2-propen-1-one]	good stability	excellent oral absorbability	
Gemcitabine-cisplatin			1
